In patent publication US11866450B2, “Modulators of Cystic Fibrosis Transmembrane Conductance regulator, pharmaceutical compositions, methods of treatment, and process for making the modulators” (priority 2018, dated 2024):
Where two headings read alike, the source gives them in different places.

Assays:
[1] = snar bond
[2] = target: CFTR-mediated chloride transport (Homo sapiens, UniProt P13569); format: cell-based; settings: enteroid cells incubated with test compound 18-24 hours, acute 10 μM forskolin and 300 nM Compound III; for Max. Activity: % of chloride transport with 3 μM Compound A, 3 μM Compound II and 300 nM acute Compound III triple combination control
Chain of CFTR-mediated chloride transport (P13569 whole entry, looked up): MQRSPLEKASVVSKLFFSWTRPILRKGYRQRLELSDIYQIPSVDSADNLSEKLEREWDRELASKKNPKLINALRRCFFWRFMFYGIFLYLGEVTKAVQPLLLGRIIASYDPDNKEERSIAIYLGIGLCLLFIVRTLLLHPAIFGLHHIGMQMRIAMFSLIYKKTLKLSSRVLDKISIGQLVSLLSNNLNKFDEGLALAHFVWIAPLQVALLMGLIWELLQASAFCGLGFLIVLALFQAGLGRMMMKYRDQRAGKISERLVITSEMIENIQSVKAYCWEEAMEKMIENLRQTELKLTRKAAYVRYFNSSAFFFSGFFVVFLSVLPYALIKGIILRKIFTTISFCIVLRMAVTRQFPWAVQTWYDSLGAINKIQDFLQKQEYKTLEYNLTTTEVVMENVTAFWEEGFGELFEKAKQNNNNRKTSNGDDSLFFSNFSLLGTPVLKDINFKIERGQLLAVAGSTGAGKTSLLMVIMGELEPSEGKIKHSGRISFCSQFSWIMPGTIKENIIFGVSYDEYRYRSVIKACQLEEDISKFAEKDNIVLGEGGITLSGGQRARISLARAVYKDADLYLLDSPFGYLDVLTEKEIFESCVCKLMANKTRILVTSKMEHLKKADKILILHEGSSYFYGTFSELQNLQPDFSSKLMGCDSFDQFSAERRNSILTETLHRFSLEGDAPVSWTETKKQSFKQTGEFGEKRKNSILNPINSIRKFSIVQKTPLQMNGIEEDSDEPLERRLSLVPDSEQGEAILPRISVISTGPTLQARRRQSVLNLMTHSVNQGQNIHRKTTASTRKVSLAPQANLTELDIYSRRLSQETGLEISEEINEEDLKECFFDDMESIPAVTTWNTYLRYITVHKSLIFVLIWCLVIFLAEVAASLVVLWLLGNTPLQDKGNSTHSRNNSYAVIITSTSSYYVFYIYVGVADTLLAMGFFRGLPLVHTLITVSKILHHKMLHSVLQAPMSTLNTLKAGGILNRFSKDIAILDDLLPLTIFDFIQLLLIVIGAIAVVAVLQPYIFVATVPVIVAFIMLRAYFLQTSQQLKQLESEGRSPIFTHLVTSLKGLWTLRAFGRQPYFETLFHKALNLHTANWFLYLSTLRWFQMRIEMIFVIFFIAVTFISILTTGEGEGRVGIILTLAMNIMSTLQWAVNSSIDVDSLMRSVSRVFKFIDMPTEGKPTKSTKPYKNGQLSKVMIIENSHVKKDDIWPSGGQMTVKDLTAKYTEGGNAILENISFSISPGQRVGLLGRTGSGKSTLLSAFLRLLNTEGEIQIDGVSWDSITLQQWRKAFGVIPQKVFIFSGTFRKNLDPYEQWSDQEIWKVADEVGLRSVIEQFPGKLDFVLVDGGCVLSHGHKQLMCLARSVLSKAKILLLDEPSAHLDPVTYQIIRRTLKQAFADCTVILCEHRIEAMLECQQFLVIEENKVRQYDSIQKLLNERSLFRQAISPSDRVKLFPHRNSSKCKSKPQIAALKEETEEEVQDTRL
How it was run: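 Human intestinal enteroid cells incubated with compound 18–24 h at 37° C., then membrane potential dye (FLIPR) read 15 min after chloride-free stimulation with 10 μM forskolin, 100 μM IBMX and 300 nM Compound III. AUC expressed as % of triple-combination control (3 μM Compound A, 3 μM Compound II, 300 nM Compound III).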

[3] = from Cc1c(S(=O)(=O)NC(=O)c2ccc(-n3ccc(OCC(C)(C)C(F)(F)F)n3)nc2Cl)cnn1CCCC1CNC(C)(C)C1, 14-membered ring, K2CO3/CsF/3A MS, DMSO, 25.9 mM, 150.0 °C

Structure (SMILES): CC1(C)CC2CN1c1nc(-n3ccc(OCCC(C4CC4)C4CC4)n3)ccc1C(=O)NS(=O)(=O)c1cccc(n1)NCCO2 (racemic) [Compound 156, 8-[3-(3,3-Dicyclopropylpropoxy)-1H-pyrazol-1-yl]-12,12-dimethyl-15-oxa-2λ^6-thia-3,9,11,18,23-pentaazatetracyclo[17.3.1.111,14.05,10]tetracosa-1(23),5,7,9,19,21-hexaene-2,2,4-trione]
- ring closure, yield after HPLC ([1]; from CC1(C)CC(OCCNc2cccc(S(=O)(=O)NC(=O)c3ccc(-n4ccc(OCCC(C5CC5)C5CC5)n4)nc3Cl)n2)CN1, 15-membered ring, K2CO3/CsF/3A MS, DMSO, 121.6 mM, 150.0 °C): 30%
- EC50 [2]: < 1000 nM
- Max. Activity [2]: +++ (+++ is >60%)

Structure (SMILES): Cc1ccc2nc1NCCCC1CN(c3nc(-n4ccc(OCCC5(C(F)(F)F)CC5)n4)ccc3C(=O)NS2(=O)=O)C(C)(C)C1 (centres unmarked)
- ring closure, yield after HPLC ([1]; from Cc1ccc(S(=O)(=O)NC(=O)c2ccc(-n3ccc(OCCC4(C(F)(F)F)CC4)n3)nc2Cl)nc1NCCCC1CNC(C)(C)C1, 15-membered ring, K2CO3/CsF/4A MS, DMSO, 61.3 mM, 140.0 °C, 16.0 h): 42%

Structure (SMILES): Cc1cn2nc1S(=O)(=O)NC(=O)c1ccc(-n3ccc(OCCC(C4CC4)C4CC4)n3)nc1N1CC(CCC2)CC1(C)C (centres unmarked)
- ring closure, yield after HPLC ([1]; from Cc1cn(CCCC2CNC(C)(C)C2)nc1S(=O)(=O)NC(=O)c1ccc(-n2ccc(OCCC(C3CC3)C3CC3)n2)nc1Cl, 14-membered ring, K2CO3/CsF/3A MS, DMSO, 58.8 mM, 150.0 °C): 38%

Structure (SMILES): CC1(C)CC2CN1c1nc(-n3ccc(OCCC4(C(F)(F)F)CC4)n3)ccc1C(=O)NS(=O)(=O)c1ccnn1CCO2 (centres unmarked) [Compound 152, 21,21-dimethyl-4-(3-{2-[1-(trifluoromethyl)cyclopropyl]ethoxy}-1H-pyrazol-1-yl)-18-oxa-10λ^6-thia-1,3,9,14,15-pentaazatetracyclo[17.2.1.02,7.011,15]docosa-2(7),3,5,11,13-pentaene-8,10,10-trione]
- ring closure, yield after HPLC ([1]; from CC(C)(C)OC(=O)N1CC(OCCn2ccc(S(=O)(=O)NC(=O)c3ccc(-n4ccc(OCCC5(C(F)(F)F)CC5)n4)nc3Cl)n2)CC1(C)C, 13-membered ring, K2CO3/CsF/3A MS, DMSO, 62.0 mM, 140.0 °C, 2 steps): 34%
- EC50 [2]: > 3000 nM
- Max. Activity [2]: + (+ is <30%)

Structure (SMILES): CC1(C)CC2CCCn3ccc(n3)S(=O)(=O)NC(=O)c3ccc(-n4ccc(OCCC5(C(F)(F)F)CC5)n4)nc3N1C2 (centres unmarked) [Compound 32, 20,20-dimethyl-4-(3-{2-[1-(trifluoromethyl)cyclopropyl]ethoxy}-1H-pyrazol-1-yl)-10λ^6-thia-1,3,9,14,22-pentaazatetracyclo[16.2.1.111,14.02,7]docosa-2(7),3,5,11(22),12-pentaene-8,10,10-trione]
- ring closure, yield after HPLC ([1]; from CC(C)(C)OC(=O)N1CC(CCCn2ccc(S(=O)(=O)NC(=O)c3ccc(-n4ccc(OCCC5(C(F)(F)F)CC5)n4)nc3Cl)n2)CC1(C)C, 14-membered ring, K2CO3/CsF/3A MS, DMSO, 55.3 mM, 130.0 °C, 2 steps): 40%
- EC50 [2]: < 1000 nM
- Max. Activity [2]: +++ (+++ is >60%)

Structure (SMILES): CN1CCCC2CN(c3nc(-n4ccc(OCCC(C5CC5)C5CC5)n4)ccc3C(=O)NS(=O)(=O)c3cccc1n3)C(C)(C)C2 (centres unmarked) [Compound 189, 8-[3-(3,3-Dicyclopropylpropoxy)-1H-pyrazol-1-yl]-12,12,18-trimethyl-2λ^6-thia-3,9,11,18,23-pentaazatetracyclo[17.3.1.111,14.05,10]tetracosa-1(22),5,7,9,19(23),20-hexaene-2,2,4-trione]
- ring closure, yield after HPLC ([1]; from CN(CCCC1CNC(C)(C)C1)c1cccc(S(=O)(=O)NC(=O)c2ccc(-n3ccc(OCCC(C4CC4)C4CC4)n3)nc2Cl)n1, 15-membered ring, K2CO3/CsF/4A MS, DMSO, 24.8 mM, 130.0 °C, 2 steps): 60%
- EC50 [2]: < 1000 nM
- Max. Activity [2]: +++ (+++ is >60%)

Structure (SMILES): CC1(C)C[C@@H]2CCCNc3cccc(n3)S(=O)(=O)NC(=O)c3ccc(-n4ccc(OCCC(C5CCC5)C5CCC5)n4)nc3N1C2 [Compound 231, (14S)-8-[3-(3,3-dicyclobutylpropoxy)-1H-pyrazol-1-yl]-12,12-dimethyl-2λ^6-thia-3,9,11,18,23-pentaazatetracyclo[17.3.1.111,14.05,10]tetracosa-1(22),5,7,9,19(23),20-hexaene-2,2,4-trione]
- ring closure, yield after HPLC ([1]; from CC1(C)C[C@H](CCCNc2cccc(S(=O)(=O)NC(=O)c3ccc(-n4ccc(OCCC(C5CCC5)C5CCC5)n4)nc3Cl)n2)CN1, 15-membered ring, K2CO3/CsF/3A MS, DMSO, 21.1 mM, 165.0 °C, 16.0 h): 32%
- EC50 [2]: < 1000 nM
- Max. Activity [2]: +++ (+++ is >60%)

Structure (SMILES): CC1(C)C[C@@H]2CCCNc3cccc(n3)S(=O)(=O)NC(=O)c3ccc(C4=CCCCO4)nc3N1C2 [Compound 303, (14S)-8-(3,4-dihydro-2H-pyran-6-yl)-12,12-dimethyl-2λ^6-thia-3,9,11,18,23-pentaazatetracyclo[17.3.1.111,14.05,10]tetracosa-1(22),5,7,9,19(23),20-hexaene-2,2,4-trione]
- ring closure, yield after HPLC ([1]; from CC1(C)C[C@H](CCCNc2cccc(S(=O)(=O)NC(=O)c3ccc(C4=CCCCO4)nc3Cl)n2)CN1, 15-membered ring, K2CO3, NMP, 25.7 mM, 180.0 °C): 3%
- EC50 [2]: < 1000 nM
- Max. Activity [2]: +++ (+++ is >60%)

Structure (SMILES): CC1(C)CC2CCCNc3cccc(n3)S(=O)(=O)NC(=O)c3ccc(-n4ccc(O)n4)nc3N1C2 (centres unmarked) [Compound 38, 8-(3-hydroxy-1H-pyrazol-1-yl)-12,12-dimethyl-2λ^6-thia-3,9,11,18,23-pentaazatetracyclo[17.3.1.111,14.05,10]tetracosa-1(22),5,7,9,19(23),20-hexaene-2,2,4-trione]
- ring closure, yield after HPLC ([1]; from CC1(C)CC(CCCNc2cccc(S(=O)(=O)NC(=O)c3ccc(-n4ccc(O)n4)nc3Cl)n2)CN1, 15-membered ring, CsF/K2CO3/3A MS, DMSO, 39.3 mM, 140.0 °C): 17%
- EC50 [2]: > 3000 nM
- Max. Activity [2]: ++ (++ is 30-60%)

Structure (SMILES): Cc1c2cnn1CCCC1CN(c3nc(-n4ccc(OCC(C)(C)C(F)(F)F)n4)ccc3C(=O)NS2(=O)=O)C(C)(C)C1 (single isomer, unassigned; atropisomer 1)
- ring closure, yield after HPLC [1, 3]: 10%

Structure (SMILES): CC1(C)CCC2CCCNc3cccc(n3)S(=O)(=O)NC(=O)c3ccc(Cl)nc3N21 (centres unmarked)
- ring closure, yield after HPLC ([1]; from CC1(C)CCC(CCCNc2cccc(S(=O)(=O)NC(=O)c3ccc(Cl)nc3Cl)n2)N1, 14-membered ring, K2CO3/CsF/4A MS, DMSO, 63.7 mM, 150.0 °C): 24%

Structure (SMILES): CC1(C)CC2CCCn3nccc3S(=O)(=O)NC(=O)c3ccc(Cl)nc3N1C2 (centres unmarked)
- ring closure, yield after HPLC ([1]; from tert-butyl 4-[3-[3-1(2,6-dichloropyridine-3-carbonyl)sulfamoyl]pyrazol-1-yl]propyl]-2,2-dimethyl-pyrrolidine-1-carboxylate, TFA (Boc off), CsF/K2CO3/3A MS, DMSO, 89.2 mM, 140.0 °C, 2 steps): 4%

Structure (SMILES): CC1(C)CC2CCNc3cccc(n3)S(=O)(=O)NC(=O)c3ccc(-n4ccc(OCCC(C5CC5)C5CC5)n4)nc3N1C2 (single isomer, unassigned; enantiomer 1)
- ring closure, yield after HPLC ([1]; from CC1(C)CC(CCNc2cccc(S(=O)(=O)NC(=O)c3ccc(-n4ccc(OCCC(C5CC5)C5CC5)n4)nc3Cl)n2)CN1, 14-membered ring, K2CO3/CsF/3A MS, DMSO, 24.9 mM, 150.0 °C): 41%

Structure (SMILES): Cc1c2cnn1CCCCC1CN(c3nc(-n4ccc(OCCC5(C(F)(F)F)CC5)n4)ccc3C(=O)NS2(=O)=O)C(C)(C)C1 (centres unmarked)
- ring closure, yield after HPLC ([1]; from Cc1c(S(=O)(=O)NC(=O)c2ccc(-n3ccc(OCCC4(C(F)(F)F)CC4)n3)nc2Cl)cnn1CCCCC1CNC(C)(C)C1, 15-membered ring, K2CO3/CsF, DMSO, 130.1 mM, 150.0 °C): 13%

Structure (SMILES): CC1(C)CCC2CCCOc3cccc(c3)S(=O)(=O)NC(=O)c3ccc(-n4ccc(OCCC5(C(F)(F)F)CC5)n4)nc3N21 (centres unmarked)
- ring closure, yield after HPLC ([1]; from CC(C)(C)OC(=O)N1C(CCCOc2cccc(S(=O)(=O)NC(=O)c3ccc(-n4ccc(OCCC5(C(F)(F)F)CC5)n4)nc3Cl)c2)CCC1(C)C, 14-membered ring, K2CO3, then CsF, DMSO, 64.2 mM, 170.0 °C, 2 steps): 4%

Structure (SMILES): CC1(C)CC2CCNc3cccc(n3)S(=O)(=O)NC(=O)c3ccc(-n4ccc(OCCC(C5CC5)C5CC5)n4)nc3N1C2 (single isomer, unassigned; enantiomer 2)
- ring closure, yield after HPLC ([1]; from CC1(C)CC(CCNc2cccc(S(=O)(=O)NC(=O)c3ccc(-n4ccc(OCCC(C5CC5)C5CC5)n4)nc3Cl)n2)CN1, 14-membered ring, K2CO3/CsF/3A MS, DMSO, 22.7 mM, 150.0 °C): 29%

Structure (SMILES): Cc1c2cnn1CCCC1CN(c3nc(-n4ccc(OCC(C)(C)C(F)(F)F)n4)ccc3C(=O)NS2(=O)=O)C(C)(C)C1 (single isomer, unassigned; atropisomer 2)
- ring closure, yield after HPLC [1, 3]: 4%

Structure (SMILES): [2H]C([2H])(Oc1ccn(-c2ccc3c(n2)N2C[C@@H](CCCNc4nc(ccc4OCc4ccccc4)S(=O)(=O)NC3=O)CC2(C)C)n1)C([2H])([2H])C1C2(CC2)C12CC2
- ring closure, yield after HPLC ([1]; from [2H]C([2H])(Oc1ccn(-c2ccc(C(=O)NS(=O)(=O)c3ccc(OCc4ccccc4)c(NCCC[C@@H]4CN(C(=O)OC(C)(C)C)C(C)(C)C4)n3)c(Cl)n2)n1)C([2H])([2H])C1C2(CC2)C12CC2, 15-membered ring, K2CO3/4A MS, DMSO, 100.9 mM, 140.0 °C, 2 steps): 44%

Structure (SMILES): CC1(C)CC2CCCNc3cccc(n3)S(=O)(=O)NC(=O)c3ccc(Cl)nc3N1C2 (centres unmarked)
- ring closure, yield after HPLC ([1]; from CC1(C)CC(CCCNc2cccc(S(=O)(=O)NC(=O)c3ccc(Cl)nc3Cl)n2)CN1, 15-membered ring, K2CO3/CsF/3A MS, DMSO, 82.2 mM, 140.0 °C): 38%

Structure (SMILES): CC1(C)CC2CCNc3cccc(n3)S(=O)(=O)NC(=O)c3ccc(-n4ccc(OCCCC5(C(F)(F)F)CC5)n4)nc3N1C2 (centres unmarked)
- ring closure, yield after HPLC ([1]; from CC1(C)CC(CCNc2cccc(S(=O)(=O)NC(=O)c3ccc(-n4ccc(OCCCC5(C(F)(F)F)CC5)n4)nc3Cl)n2)CN1, 14-membered ring, K2CO3/CsF/3A MS, DMSO, 128.0 mM, 150.0 °C): 43%

Structure (SMILES): CC1(C)CC2CCCn3ccc(n3)S(=O)(=O)NC(=O)c3ccc(Cl)nc3N1C2 (centres unmarked)
- ring closure, yield after HPLC ([1]; from CC(C)(C)OC(=O)N1CC(CCCn2nccc2S(=O)(=O)NC(=O)c2ccc(Cl)nc2Cl)CC1(C)C, 14-membered ring, K2CO3/CsF/3A MS, DMSO, 89.2 mM, 140.0 °C, 2 steps): 12%
